Assay results from ChEMBL document CHEMBL5036327, “Systematic Optimization of Potent and Orally Bioavailable Purine Scaffold as a Dual Inhibitor of Toll-Like Receptors 7 and 9” (J Med Chem, 2021).

What follows are molecules tested against T1, Toll-like receptor 7 (Homo sapiens, UniProt Q9NYK1) (assay: Antagonist activity at human TLR7 expressed in HEK-blue-HTLR7 cells assessed as inhibition of CL264-induced NFkappaB activation measured after overnight incubation by SEAP-based spectrophotometry assay).
T1 sequence (Q9NYK1 whole entry): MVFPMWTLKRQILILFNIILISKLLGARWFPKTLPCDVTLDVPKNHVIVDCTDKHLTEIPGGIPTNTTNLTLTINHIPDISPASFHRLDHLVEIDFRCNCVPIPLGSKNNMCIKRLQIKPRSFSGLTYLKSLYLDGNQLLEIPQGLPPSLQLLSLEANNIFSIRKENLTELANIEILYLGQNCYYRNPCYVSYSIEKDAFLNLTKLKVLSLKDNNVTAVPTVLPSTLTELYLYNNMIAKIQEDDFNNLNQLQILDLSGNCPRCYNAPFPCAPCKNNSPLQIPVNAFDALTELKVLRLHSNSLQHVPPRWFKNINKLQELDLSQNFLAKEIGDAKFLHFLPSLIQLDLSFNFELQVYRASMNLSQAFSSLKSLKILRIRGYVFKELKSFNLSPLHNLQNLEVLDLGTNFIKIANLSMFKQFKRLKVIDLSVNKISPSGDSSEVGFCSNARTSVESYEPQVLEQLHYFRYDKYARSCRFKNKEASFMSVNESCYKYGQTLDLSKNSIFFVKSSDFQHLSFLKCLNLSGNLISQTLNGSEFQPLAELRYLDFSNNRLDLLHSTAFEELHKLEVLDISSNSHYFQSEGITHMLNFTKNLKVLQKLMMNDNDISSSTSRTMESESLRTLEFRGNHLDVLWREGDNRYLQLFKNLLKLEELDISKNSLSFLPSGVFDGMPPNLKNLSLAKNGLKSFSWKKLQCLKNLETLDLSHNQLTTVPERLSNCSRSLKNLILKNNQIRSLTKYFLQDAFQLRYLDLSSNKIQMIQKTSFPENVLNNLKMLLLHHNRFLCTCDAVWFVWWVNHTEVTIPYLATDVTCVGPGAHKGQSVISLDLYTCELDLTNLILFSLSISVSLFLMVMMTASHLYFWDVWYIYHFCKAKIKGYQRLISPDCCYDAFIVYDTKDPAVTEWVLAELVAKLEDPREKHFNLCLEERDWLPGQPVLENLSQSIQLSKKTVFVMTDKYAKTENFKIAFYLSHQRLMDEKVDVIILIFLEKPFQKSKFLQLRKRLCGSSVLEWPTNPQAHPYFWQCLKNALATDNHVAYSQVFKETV
`COc1ccc(CNc2nc(N3CCN(C4CCCC4)CC3)c3ncn(CCCN4CCCC4)c3n2)cc1` showed an IC50 of 11.6 µM.
In the case of `Nc1nc(N2CCN(C3CCCC3)CC2)c2ncn(CCCN3CCCC3)c2n1`, the IC50 is reported as 4.88 µM.
Work on `CCN1CCN(CCCn2cnc3c(N4CCN(CC)CC4)nc(NCc4ccccc4)nc32)CC1` yielded an IC50 of 7.59 µM.
Work on `CCN1CCN(CCCn2cnc3c(N4CCN(CC)CC4)nc(NCc4ccc(F)cc4)nc32)CC1` yielded an IC50 of 10.1 µM.
For `CCN1CCN(CCCn2cnc3c(N4CCN(CC)CC4)nc(NCc4ccc(OC)cc4)nc32)CC1`, the IC50 was 5.22 µM.
Molecule `CCN1CCN(CCCn2cnc3c(N4CCN(C(=O)C5CCCC5)CC4)nc(N)nc32)CC1` has an IC50 greater than 30 µM.
Work on `CCN1CCN(CCCn2cnc3c(N4CCN(CC)CC4)nc(NC(=O)c4ccccc4)nc32)CC1` yielded an IC50 of 7.74 µM.
`CCN1CCN(CCCn2cnc3c(N4CCN(C5CCCC5)CC4)nc(NCc4ccc(OC)cc4)nc32)CC1` showed an IC50 greater than 30 µM.
With `CCN1CCN(CCCn2cnc3c(N4CCN(C(=O)c5ccccc5)CC4)nc(NCc4ccc(OC)cc4)nc32)CC1` the IC50 was greater than 30 µM.
`CCN1CCN(CCCn2cnc3c(N4CCN(C(=O)C5CCCC5)CC4)nc(NCc4ccc(OC)cc4)nc32)CC1` gave an IC50 greater than 30 µM.

The molecules below were run against T2, Toll-like receptor 9 (Homo sapiens, UniProt Q9NR96) (assay: Antagonist activity at human TLR9 expressed in […] cells assessed as inhibition of CpGB-induced NFkappaB activation measured after overnight incubation by SEAP-based spectrophotometry assay).
T2 sequence (Q9NR96 whole entry): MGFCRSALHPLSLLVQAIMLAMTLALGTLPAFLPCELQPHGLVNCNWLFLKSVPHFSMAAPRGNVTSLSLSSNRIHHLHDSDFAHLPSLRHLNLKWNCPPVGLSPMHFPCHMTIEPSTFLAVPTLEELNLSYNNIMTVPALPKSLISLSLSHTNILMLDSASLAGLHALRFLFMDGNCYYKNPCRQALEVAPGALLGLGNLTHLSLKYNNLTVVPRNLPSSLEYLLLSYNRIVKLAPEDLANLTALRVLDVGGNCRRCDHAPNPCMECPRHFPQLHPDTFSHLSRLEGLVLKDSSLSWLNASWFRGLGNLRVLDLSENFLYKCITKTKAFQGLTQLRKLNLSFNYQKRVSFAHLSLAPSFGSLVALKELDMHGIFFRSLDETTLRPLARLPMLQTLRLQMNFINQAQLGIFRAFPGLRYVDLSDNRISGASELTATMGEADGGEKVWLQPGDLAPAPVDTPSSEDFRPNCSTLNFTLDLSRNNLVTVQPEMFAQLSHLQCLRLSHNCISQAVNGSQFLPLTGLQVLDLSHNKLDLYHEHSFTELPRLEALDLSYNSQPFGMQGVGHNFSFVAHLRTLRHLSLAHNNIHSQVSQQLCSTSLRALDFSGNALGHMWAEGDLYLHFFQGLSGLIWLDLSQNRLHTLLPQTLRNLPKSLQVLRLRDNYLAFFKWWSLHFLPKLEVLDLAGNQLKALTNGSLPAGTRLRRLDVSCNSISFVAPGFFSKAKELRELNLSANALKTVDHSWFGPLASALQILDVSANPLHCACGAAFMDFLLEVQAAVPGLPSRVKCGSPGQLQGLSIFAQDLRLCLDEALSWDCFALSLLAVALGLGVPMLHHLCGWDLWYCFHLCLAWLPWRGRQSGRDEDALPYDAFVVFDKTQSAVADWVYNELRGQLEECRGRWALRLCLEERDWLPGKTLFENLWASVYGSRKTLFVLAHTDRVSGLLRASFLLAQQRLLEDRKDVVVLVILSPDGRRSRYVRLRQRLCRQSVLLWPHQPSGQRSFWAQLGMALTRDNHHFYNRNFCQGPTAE
Format: cell-based, HEK293
Work on `CCN1CCN(c2nc(NCc3ccc(F)cc3)nc3c2ncn3CCCN2CCCC2)CC1` yielded an IC50 of 0.04 µM.
With `CCN1CCN(CCCn2cnc3c(N4CCN(C5CCCC5)CC4)nc(NC(=O)c4ccc(CN(C)C)cc4)nc32)CC1` the IC50 was 0.06 µM.
For `Nc1nc(N2CCN(C3CCCC3)CC2)c2ncn(CCCN3CCCC3)c2n1`, the IC50 was 0.12 µM.
In the case of `CCN1CCN(CCCn2cnc3c(N4CCN(CC)CC4)nc(NCc4ccc(OC)cc4)nc32)CC1`, the IC50 is reported as 0.2 µM.
`CCN1CCN(CCCn2cnc3c(N4CCN(C(=O)C5CCCC5)CC4)nc(N)nc32)CC1` was tested, and the IC50 was greater than 30 µM.
With `CCN1CCN(CCCn2cnc3c(N4CCN(C(=O)c5ccccc5)CC4)nc(NCc4ccc(OC)cc4)nc32)CC1` the IC50 was greater than 30 µM.
Work on `CCN1CCN(CCCn2cnc3c(N4CCN(C(=O)C5CCCC5)CC4)nc(NCc4ccc(OC)cc4)nc32)CC1` yielded an IC50 greater than 30 µM.

Each molecule was assayed against T3, Toll-like receptor 8 (Homo sapiens, UniProt Q9NR97) (assay: Antagonist activity at human TLR8 expressed in […] cells assessed as inhibition of CL075-induced NFkappaB activation measured after overnight incubation by SEAP-based spectrophotometry assay).
T3 sequence (Q9NR97 whole entry): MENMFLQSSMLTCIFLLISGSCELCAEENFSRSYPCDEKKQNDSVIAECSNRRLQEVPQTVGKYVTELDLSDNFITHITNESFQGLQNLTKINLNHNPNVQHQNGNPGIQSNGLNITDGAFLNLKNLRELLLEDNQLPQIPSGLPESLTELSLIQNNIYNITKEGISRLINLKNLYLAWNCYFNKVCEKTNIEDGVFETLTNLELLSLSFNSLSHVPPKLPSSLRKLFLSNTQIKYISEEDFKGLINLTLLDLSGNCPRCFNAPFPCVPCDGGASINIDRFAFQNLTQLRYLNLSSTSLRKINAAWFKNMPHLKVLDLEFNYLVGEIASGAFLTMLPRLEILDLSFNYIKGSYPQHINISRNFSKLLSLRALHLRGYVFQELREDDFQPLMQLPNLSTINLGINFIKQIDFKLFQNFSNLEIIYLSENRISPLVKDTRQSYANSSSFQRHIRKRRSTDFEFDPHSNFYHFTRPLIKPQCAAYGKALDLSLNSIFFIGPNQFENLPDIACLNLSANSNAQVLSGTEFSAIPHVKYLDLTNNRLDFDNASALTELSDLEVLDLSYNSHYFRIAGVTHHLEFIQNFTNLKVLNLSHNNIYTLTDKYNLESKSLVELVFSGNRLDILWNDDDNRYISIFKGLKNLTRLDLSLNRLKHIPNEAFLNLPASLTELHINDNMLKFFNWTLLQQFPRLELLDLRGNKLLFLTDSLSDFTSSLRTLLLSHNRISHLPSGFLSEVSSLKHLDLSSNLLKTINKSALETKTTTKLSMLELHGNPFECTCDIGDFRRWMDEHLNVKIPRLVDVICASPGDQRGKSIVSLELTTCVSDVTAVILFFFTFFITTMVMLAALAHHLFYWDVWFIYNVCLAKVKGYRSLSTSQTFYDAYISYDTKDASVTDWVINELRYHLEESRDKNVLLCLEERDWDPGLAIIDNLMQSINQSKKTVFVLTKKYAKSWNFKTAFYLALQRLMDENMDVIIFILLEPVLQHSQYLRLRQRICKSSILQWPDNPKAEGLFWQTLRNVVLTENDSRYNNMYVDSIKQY
Format: cell-based, HEK293
Molecule `CCN1CCN(c2nc(NCc3ccc(F)cc3)nc3c2ncn3CCCN2CCCC2)CC1` has an IC50 greater than 30 µM.
`CCN1CCN(CCCn2cnc3c(N4CCN(C5CCCC5)CC4)nc(NC(=O)c4ccc(CN(C)C)cc4)nc32)CC1` showed an IC50 greater than 30 µM.
Molecule `CCN1CCN(c2nc(NCc3ccc(OC)cc3)nc3c2ncn3CCCN2CCCC2)CC1` has an IC50 greater than 30 µM.
